# Tests used:
# Assay type in all cases: in vivo
# [1] = test system: redroot pigweed (Amaranthus retroflexus, AMARE); test: Pre-emerge test, greenhouse herbicide activity screening; details: for Pre-emerge Herbicidal Activity, phytotoxicity rating (0-100), AMARE: rated 14 days after application, 0 = no damage, 100 = complete death; for phytotoxicity rating AMARE: pre-emerge, 14 days after application, scale 0-100
# Procedure, shortened: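 Rating: 0–100 visual injury, 14 DAA. Application: acetone, 187 l/ha, 15–1000 g ai/ha, flat-fan track sprayer with nozzle 40–45 cm above soil or canopy. Post-emerge runs used 0.25% v/v surfactant on 2–3 leaf plants.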
# [2] = test system: barnyardgrass (Echinochloa crus-galli, ECHCG); test: as above; details: for Pre-emerge Herbicidal Activity, phytotoxicity rating (0-100), ECHCG: rated 14 days after application, 0 = no damage, 100 = complete death; for phytotoxicity rating ECHCG: pre-emerge, 14 days after application, scale 0-100
# Procedure, shortened: (§1)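 Applied at 15–1000 g ai/ha from acetone in 187 l/ha spray volume. Post-emergence applications included 0.25% v/v non-ionic surfactant and reached plants sown 8–21 days before. Pre-emergence applications were incorporated by surface watering. Efficacy or crop damage was rated on a 0–100 scale after 14 days.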
# [3] = test system: green foxtail (Setaria viridis, SETVI); test: as above; details: for Pre-emerge Herbicidal Activity, phytotoxicity rating (0-100), SETVI: rated 14 days after application, 0 = no damage, 100 = complete death; for phytotoxicity rating SETVI: pre-emerge, 14 days after application, scale 0-100
# Procedure, shortened: as §1
# [4] = test system: ivyleaf morningglory (Ipomoea hederacea, IPOHE); test: as above; details: for Pre-emerge Herbicidal Activity, phytotoxicity rating (0-100), IPOHE: rated 14 days after application, 0 = no damage, 100 = complete death; for phytotoxicity rating IPOHE: pre-emerge, 14 days after application, scale 0-100
# Procedure, shortened: as §1
# [5] = test system: johnsongrass (Sorghum halepense, SORHA); test: as above; details: for Pre-emerge Herbicidal Activity, phytotoxicity rating (0-100), SORHA: rated 14 days after application, 0 = no damage, 100 = complete death; for phytotoxicity rating SORHA: pre-emerge, 14 days after application, scale 0-100
# Procedure, shortened: as §1
# [6] = test system: lambsquarters (Chenopodium album, CHEAL); test: as above; details: for Pre-emerge Herbicidal Activity, phytotoxicity rating (0-100), CHEAL: rated 14 days after application, 0 = no damage, 100 = complete death; for phytotoxicity rating CHEAL: pre-emerge, 14 days after application, scale 0-100
# Procedure, shortened: as §1
# [7] = test system: large crabgrass (Digitaria sanguinalis, DIGSA); test: as above; details: for Pre-emerge Herbicidal Activity, phytotoxicity rating (0-100), DIGSA: rated 14 days after application, 0 = no damage, 100 = complete death; for phytotoxicity rating DIGSA: pre-emerge, 14 days after application, scale 0-100
# Procedure, shortened: as §1
# [8] = test system: sicklepod (Cassia obtusifolia, CASOB); test: as above; details: for Pre-emerge Herbicidal Activity, phytotoxicity rating (0-100), CASOB: rated 14 days after application, 0 = no damage, 100 = complete death; for phytotoxicity rating CASOB: pre-emerge, 14 days after application, scale 0-100
# Procedure, shortened: as §1
# [9] = test system: velvetleaf (Abutilon theophrasti, ABUTH); test: as above; details: for Pre-emerge Herbicidal Activity, phytotoxicity rating (0-100), ABUTH: rated 14 days after application, 0 = no damage, 100 = complete death; for phytotoxicity rating ABUTH: pre-emerge, 14 days after application, scale 0-100
# Procedure, shortened: as §1
# [10] = test system: field corn (Zea mays L., var. Dekalb 535, CORN); test: Pre-emerge test, crop safety; details: for Pre-emerge phytotoxicity rating (0-100), crop damage, CORN: rated 14 days after application, 0 = no damage, 100 = complete death; for phytotoxicity rating CORN (crop damage): pre-emerge, 14 days after application, scale 0-100
# Procedure, shortened: (§2)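 Fourteen days after spraying, crop and weed injury was graded visually from 0, no effect, to 100, every plant dead. Test substances were dissolved in acetone and applied at 15–1000 g ai/ha with a flat-fan nozzle. Application was either pre-emergence, one day after sowing, or post-emergence at the 2–3 leaf stage.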
# [11] = test system: upland rice (Oryza sp., var. Tebonnet, RICE); test: Pre-emerge test, crop safety; details: for Pre-emerge phytotoxicity rating (0-100), crop damage, RICE: rated 14 days after application, 0 = no damage, 100 = complete death; for phytotoxicity rating RICE (crop damage): pre-emerge, 14 days after application, scale 0-100
# Procedure, shortened: as §2
# [12] = test system: barnyardgrass (Echinochloa crus-galli, ECHCG); test: Post-emerge test, greenhouse herbicide activity screening; details: post-emerge, 14 days after application, rating scale 0-100
# Procedure, shortened: (§3)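 Sandy loam pots; pre-emerge: sown 1 d pre-spray, surface-watered after, then bottom-watered. Post-emerge: sown 8–21 d before, 2–3 leaf stage, + 0.25% v/v NIS, bottom-watered. Acetone, 187 l/ha track spray, 15–1000 g ai/ha. 0–100 injury score, day 14.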
# [13] = test system: common ragweed (Ambrosia artemisizfolia L., AMBEL); test: as above; details: post-emerge, 14 days after application, rating scale 0-100
# Procedure, shortened: as §3
# [14] = test system: green foxtail (Setaria viridis, SETVI); test: as above; details: post-emerge, 14 days after application, rating scale 0-100
# Procedure, shortened: as §3
# [15] = test system: ivyleaf morningglory (Ipomoea hederacea, IPOHE); test: as above; details: post-emerge, 14 days after application, rating scale 0-100
# Procedure, shortened: as §3
# [16] = test system: johnsongrass (Sorghum halepense, SORHA); test: as above; details: post-emerge, 14 days after application, rating scale 0-100
# Procedure, shortened: as §3
# [17] = test system: lambsquarters (Chenopodium album, CHEAL); test: as above; details: post-emerge, 14 days after application, rating scale 0-100
# Procedure, shortened: as §3
# [18] = test system: large crabgrass (Digitaria sanguinalis, DIGSA); test: as above; details: post-emerge, 14 days after application, rating scale 0-100
# Procedure, shortened: as §3
# [19] = test system: redroot pigweed (Amaranthus retroflexus, AMARE); test: as above; details: post-emerge, 14 days after application, rating scale 0-100
# Procedure, shortened: as §3
# [20] = test system: sicklepod (Cassia obtusifolia, CASOB); test: as above; details: post-emerge, 14 days after application, rating scale 0-100
# Procedure, shortened: as §3
# [21] = test system: velvetleaf (Abutilon theophrasti, ABUTH); test: as above; details: post-emerge, 14 days after application, rating scale 0-100
# Procedure, shortened: as §3
# [22] = test system: field corn (Zea mays L., var. Dekalb 535, CORN); test: Post-emerge test, crop safety; details: post-emerge, 14 days after application, rating scale 0-100
# Procedure, shortened: as §1
# [23] = test system: upland rice (Oryza sp., var. Tebonnet, RICE); test: Post-emerge test, crop safety; details: post-emerge, 14 days after application, rating scale 0-100
# Procedure, shortened: as §1
structure (smiles),measurement,setting,value
COc1c(Cl)cc(F)c(-n2c(=O)cc(C(F)(F)F)n(C)c2=O)c1NC(=O)c1cnc2ccccc2n1 [2-105],"Pre-emerge Herbicidal Activity, phytotoxicity rating (0-100), AMARE",[1]; 63 g ai/ha,100
same,"Pre-emerge Herbicidal Activity, phytotoxicity rating (0-100), AMARE",[1]; 250 g ai/ha,100
same,"Pre-emerge Herbicidal Activity, phytotoxicity rating (0-100), ECHCG",[2]; 63 g ai/ha,20
same,"Pre-emerge Herbicidal Activity, phytotoxicity rating (0-100), ECHCG",[2]; 250 g ai/ha,100
same,"Pre-emerge Herbicidal Activity, phytotoxicity rating (0-100), SETVI",[3]; 63 g ai/ha,100
same,"Pre-emerge Herbicidal Activity, phytotoxicity rating (0-100), SETVI",[3]; 250 g ai/ha,100
same,"Pre-emerge Herbicidal Activity, phytotoxicity rating (0-100), IPOHE",[4]; 63 g ai/ha,20
same,"Pre-emerge Herbicidal Activity, phytotoxicity rating (0-100), IPOHE",[4]; 250 g ai/ha,95
same,"Pre-emerge Herbicidal Activity, phytotoxicity rating (0-100), SORHA",[5]; 63 g ai/ha,40
same,"Pre-emerge Herbicidal Activity, phytotoxicity rating (0-100), SORHA",[5]; 250 g ai/ha,95
same,"Pre-emerge Herbicidal Activity, phytotoxicity rating (0-100), CHEAL",[6]; 63 g ai/ha,100
same,"Pre-emerge Herbicidal Activity, phytotoxicity rating (0-100), CHEAL",[6]; 250 g ai/ha,100
same,"Pre-emerge Herbicidal Activity, phytotoxicity rating (0-100), DIGSA",[7]; 63 g ai/ha,90
same,"Pre-emerge Herbicidal Activity, phytotoxicity rating (0-100), DIGSA",[7]; 250 g ai/ha,100
same,"Pre-emerge Herbicidal Activity, phytotoxicity rating (0-100), CASOB",[8]; 63 g ai/ha,30
same,"Pre-emerge Herbicidal Activity, phytotoxicity rating (0-100), CASOB",[8]; 250 g ai/ha,60
same,"Pre-emerge Herbicidal Activity, phytotoxicity rating (0-100), ABUTH",[9]; 63 g ai/ha,100
same,"Pre-emerge Herbicidal Activity, phytotoxicity rating (0-100), ABUTH",[9]; 250 g ai/ha,100
same,"Pre-emerge phytotoxicity rating (0-100), crop damage, CORN",[10]; 63 g ai/ha,10
same,"Pre-emerge phytotoxicity rating (0-100), crop damage, CORN",[10]; 250 g ai/ha,10
same,"Pre-emerge phytotoxicity rating (0-100), crop damage, RICE",[11]; 63 g ai/ha,50
same,"Pre-emerge phytotoxicity rating (0-100), crop damage, RICE",[11]; 250 g ai/ha,70
same,phytotoxicity rating ECHCG,[12]; 63 g ai/ha,10
same,phytotoxicity rating ECHCG,[12]; 250 g ai/ha,30
same,phytotoxicity rating AMBEL,[13]; 63 g ai/ha,100
same,phytotoxicity rating AMBEL,[13]; 250 g ai/ha,100
same,phytotoxicity rating SETVI,[14]; 63 g ai/ha,70
same,phytotoxicity rating SETVI,[14]; 250 g ai/ha,100
same,phytotoxicity rating IPOHE,[15]; 63 g ai/ha,100
same,phytotoxicity rating IPOHE,[15]; 250 g ai/ha,100
same,phytotoxicity rating SORHA,[16]; 63 g ai/ha,0
same,phytotoxicity rating SORHA,[16]; 250 g ai/ha,30
same,phytotoxicity rating CHEAL,[17]; 63 g ai/ha,80
same,phytotoxicity rating CHEAL,[17]; 250 g ai/ha,90
same,phytotoxicity rating DIGSA,[18]; 63 g ai/ha,0
same,phytotoxicity rating DIGSA,[18]; 250 g ai/ha,10
same,phytotoxicity rating AMARE,[19]; 63 g ai/ha,100
same,phytotoxicity rating AMARE,[19]; 250 g ai/ha,100
same,phytotoxicity rating CASOB,[20]; 63 g ai/ha,80
same,phytotoxicity rating CASOB,[20]; 250 g ai/ha,80
same,phytotoxicity rating ABUTH,[21]; 63 g ai/ha,100
same,phytotoxicity rating ABUTH,[21]; 250 g ai/ha,100
same,phytotoxicity rating CORN,[22]; 63 g ai/ha,0
same,phytotoxicity rating CORN,[22]; 250 g ai/ha,10
same,phytotoxicity rating RICE,[23]; 63 g ai/ha,0
same,phytotoxicity rating RICE,[23]; 250 g ai/ha,30
COc1c(Cl)cc(F)c(-n2c(=O)cc(C(F)(F)F)n(C)c2=O)c1NC(=O)Cc1ccccc1 [2-151],phytotoxicity rating AMARE,[1]; 63 g ai/ha,0
same,phytotoxicity rating AMARE,[1]; 250 g ai/ha,0
same,phytotoxicity rating ECHCG,[2]; 63 g ai/ha,0
same,phytotoxicity rating ECHCG,[2]; 250 g ai/ha,0
same,phytotoxicity rating SETVI,[3]; 63 g ai/ha,0
same,phytotoxicity rating SETVI,[3]; 250 g ai/ha,0
same,phytotoxicity rating IPOHE,[4]; 63 g ai/ha,0
same,phytotoxicity rating IPOHE,[4]; 250 g ai/ha,40
same,phytotoxicity rating SORHA,[5]; 63 g ai/ha,0
same,phytotoxicity rating SORHA,[5]; 250 g ai/ha,40
same,phytotoxicity rating CHEAL,[6]; 63 g ai/ha,0
same,phytotoxicity rating CHEAL,[6]; 250 g ai/ha,80
same,phytotoxicity rating DIGSA,[7]; 63 g ai/ha,0
same,phytotoxicity rating DIGSA,[7]; 250 g ai/ha,40
same,phytotoxicity rating CASOB,[8]; 63 g ai/ha,0
same,phytotoxicity rating CASOB,[8]; 250 g ai/ha,70
same,phytotoxicity rating ABUTH,[9]; 63 g ai/ha,30
same,phytotoxicity rating ABUTH,[9]; 250 g ai/ha,100
same,phytotoxicity rating CORN (crop damage),[10]; 63 g ai/ha,0
same,phytotoxicity rating CORN (crop damage),[10]; 250 g ai/ha,30
same,phytotoxicity rating RICE (crop damage),[11]; 63 g ai/ha,0
same,phytotoxicity rating RICE (crop damage),[11]; 250 g ai/ha,30
same,ECHCG phytotoxicity rating,[12]; 63 g ai/ha,0
same,ECHCG phytotoxicity rating,[12]; 250 g ai/ha,0
same,AMBEL phytotoxicity rating,[13]; 63 g ai/ha,20
same,AMBEL phytotoxicity rating,[13]; 250 g ai/ha,30
same,SETVI phytotoxicity rating,[14]; 63 g ai/ha,0
same,SETVI phytotoxicity rating,[14]; 250 g ai/ha,0
same,IPOHE phytotoxicity rating,[15]; 63 g ai/ha,30
same,IPOHE phytotoxicity rating,[15]; 250 g ai/ha,100
same,SORHA phytotoxicity rating,[16]; 63 g ai/ha,0
same,SORHA phytotoxicity rating,[16]; 250 g ai/ha,0
same,CHEAL phytotoxicity rating,[17]; 63 g ai/ha,10
same,CHEAL phytotoxicity rating,[17]; 250 g ai/ha,10
same,DIGSA phytotoxicity rating,[18]; 63 g ai/ha,0
same,DIGSA phytotoxicity rating,[18]; 250 g ai/ha,0
same,AMARE phytotoxicity rating,[19]; 63 g ai/ha,10
same,AMARE phytotoxicity rating,[19]; 250 g ai/ha,20
same,CASOB phytotoxicity rating,[20]; 63 g ai/ha,10
same,CASOB phytotoxicity rating,[20]; 250 g ai/ha,50
same,ABUTH phytotoxicity rating,[21]; 63 g ai/ha,0
same,ABUTH phytotoxicity rating,[21]; 250 g ai/ha,50
same,CORN phytotoxicity rating (crop damage),[22]; 63 g ai/ha,0
same,CORN phytotoxicity rating (crop damage),[22]; 250 g ai/ha,0
same,RICE phytotoxicity rating (crop damage),[23]; 63 g ai/ha,0
same,RICE phytotoxicity rating (crop damage),[23]; 250 g ai/ha,10

# Source: patent US6355799B1, “Substituted benzene compounds, process for their preparation, and herbicidal and defoliant compositions containing them” (ISK Americas Incorporated, priority 1997, dated 2002)
